In ChEMBL document CHEMBL1131841, “Hydroxyoxazolidines as alpha-aminoacetaldehye equivalents: novel inhibitors of calpain” (Bioorg Med Chem Lett, 1999):
pKi: −log10 of the molar value. Where a SMILES comes first, the peptide text is derived from it. [ ]: non-standard residue; d: D form. The star is where a group is joined. ξ: configuration not given here. NMeF = CN[C@@H](Cc1ccccc1)C(=O)O; Cbz = O=C(OCc1ccccc1)*; ξV = CC(C)C(N)C(=O)O

Assays:
[1] = target: T1, Calpain-1 catalytic subunit (Homo sapiens, UniProt P07384); assay: Tested for inhibitory activity against calpain
T1 sequence (P07384 whole entry): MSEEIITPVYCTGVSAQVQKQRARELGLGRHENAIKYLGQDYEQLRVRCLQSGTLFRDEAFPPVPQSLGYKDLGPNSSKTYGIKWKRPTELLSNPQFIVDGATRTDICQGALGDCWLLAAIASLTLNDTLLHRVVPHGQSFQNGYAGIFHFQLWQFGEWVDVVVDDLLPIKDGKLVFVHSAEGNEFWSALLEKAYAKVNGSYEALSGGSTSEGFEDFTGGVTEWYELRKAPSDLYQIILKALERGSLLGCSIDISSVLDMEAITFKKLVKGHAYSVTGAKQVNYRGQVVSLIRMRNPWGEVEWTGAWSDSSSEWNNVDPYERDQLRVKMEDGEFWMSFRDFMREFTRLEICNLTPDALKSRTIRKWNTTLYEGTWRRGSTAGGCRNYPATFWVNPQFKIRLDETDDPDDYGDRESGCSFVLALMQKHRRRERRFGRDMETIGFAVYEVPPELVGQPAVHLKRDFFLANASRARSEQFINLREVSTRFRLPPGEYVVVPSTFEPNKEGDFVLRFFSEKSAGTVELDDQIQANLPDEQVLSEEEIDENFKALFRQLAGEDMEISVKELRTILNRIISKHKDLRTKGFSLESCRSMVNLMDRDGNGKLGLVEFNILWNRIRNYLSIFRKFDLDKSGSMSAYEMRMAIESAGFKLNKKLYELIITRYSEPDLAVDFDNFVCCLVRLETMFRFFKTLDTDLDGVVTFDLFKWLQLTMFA

[2] = target: T1, Calpain-1 catalytic subunit; assay: Tested for inhibitory activity against calpain; NA means Not active
[3] = target: T1, Calpain-1 catalytic subunit; assay: Tested for inhibitory activity against calpain.
Cathepsin B = Cathepsin B (Bos taurus, UniProt P07688); assay: Tested for inhibitory activity against bovine cathepsin B.

Row | Structure (SMILES) | pKi [3] | other results
1 | CC(=O)O[C@@H]1OCN(C(=O)C(NC(=O)OCc2ccccc2)C(C)C)[C@H]1Cc1ccccc1 (stereo not given in full) |  | pKi [1]: 5.70
2 | CC(C)C(NC(=O)OCc1ccccc1)C(=O)N1CC[C@@H](O)[C@@H]1Cc1ccccc1 (stereo not given in full) |  | Ki [2]: Not Active
3 | CC(C)C(NC(=O)OCc1ccccc1)C(=O)N1CO[C@@H](O)[C@@H]1Cc1ccccc1 (stereo not given in full) | 7.48 | pKi (Cathepsin B): 6.92
4 | CC(C)C(NC(=O)OCc1ccccc1)C(=O)N(C)[C@H](C=O)Cc1ccccc1 (stereo not given in full) (Cbz-[ξV]-[NMeF]-aldehyde) | 6.40 | 
5 | CC(C)C(NC(=O)OCc1ccccc1)C(=O)N1C(=O)C[C@H](O)[C@@H]1Cc1ccccc1 (stereo not given in full) |  | Ki [2]: Not Active
6 | O=C(N[C@H]1CCC[C@H]2O[C@@H](O)[C@H](Cc3ccccc3)N2C1=O)OCc1ccccc1.O=C(N[C@H]1CCC[C@H]2O[C@H](O)[C@@H](Cc3ccccc3)N2C1=O)OCc1ccccc1 | 5.82 | 
7 | CC(C)C(NC(=O)OCc1ccccc1)C(=O)N(CO)[C@H](C=O)Cc1ccccc1 (stereo not given in full) | 6.40 | 
8 | CC(C)[C@@H](NC(=O)OCc1ccccc1)C(=O)N1CCO[C@@H](O)[C@@H]1Cc1ccccc1 | 4.25 | 
9 | O=C1c2ccccc2C(=O)N1[C@H]1CCC[C@H]2O[C@@H](O)[C@H](Cc3ccccc3)N2C1=O.O=C1c2ccccc2C(=O)N1[C@H]1CCC[C@H]2O[C@H](O)[C@@H](Cc3ccccc3)N2C1=O | 5.49 | 
